Results: patent US7842812B2, “Substituted 5-aminomethy1-1H-pyrrole-2-carboxylic acid amides” (Gruenenthal GmbH, priority 2004, dated 2010)

Tests used:
NA transporter = molecular target: T1, NA transporter (Rattus norvegicus, UniProt Q63380); assay: Noradrenalin (NA) uptake inhibition in rat brain synaptosomes (hypothalamus); assay type: biochemical; settings: 10 μM
T1 construct: from tissue; host or cells: rat brain synaptosomes (P2 fraction) from hypothalamus
Excerpt: (§1) b) Method for Determining Noradrenalin and 5-HT Uptake Inhibition:
(§2) Synaptosomes from rat brain regions are freshly isolated for in vitro studies, as described in the publication “The isolation of nerve endings from brain” by E. G. Gray and V. P. Whittaker, J. Anatomy 96, pages 79-88, 1962, the disclosure of which is hereby incorporated by reference. The tissue (hypothalamus for the determination of noradrenalin uptake inhibition and medulla and pons for the determination of 5-HT uptake inhibition) is homogenized in ice-cooled 0.32 M sucrose (100 mg of tissue/1 ml) in a glass homogenizer with Teflon pestle using five complete up and down strokes at 840 revolutions/minute. The homogenate is centrifuged at 4° C. for 10 minutes at 1000 g. After subsequent centrifugation at 17000 g for 55 minutes, the synaptosomes (P2 fraction) are obtained, which are resuspended in 0.32 M […] (0.5 ml/100 mg of original weight).
The particular uptake is measured in a 96-well microtitre plate. The volume is 250 μl and the incubation proceeds at room temperature (approx. 20-25° C.) under an O2 atmosphere. The incubation time is 7.5 minutes for [^3H]-NA and 5 minutes for [^3H]-5-HT. The 96 samples are then filtered through a Unifilter GF/B® microtitre plate (Packard) and washed with […] of incubated buffer using a “Brabdel MPXRI-96T Cell-Harvester”. The Unifilter GF/B plate is dried for 1 hour at 55° C. The plate is then sealed with a Back Seal® (Packard) and 35 μl of scintillation fluid are added per well (Ultima Gold®, Packard). After sealing with a Top Seal® (Packard) and establishing an equilibrium (around 5 hours), radioactivity is determined in a “Trilux 1450 Microbeta” (Wallac).
The quantity of protein used in the above determination corresponds to the values known from the literature, as for example described in “Protein measurement with the folin phenol reagent”, Lowry et al., J. Biol. Chem., 193, 265-275, 1951. A detailed description of the method may additionally be found in the literature, for example in M. Ch. Frink, H.-H. Hennies, W. Engelberger, M. Haurand and B. Wilffert (1996) Arzneim.-Forsch./Drug Res. 46 (III), 11, 1029-1036, the disclosures of which are hereby incorporated by reference.
The following characteristics were determined for the NA or 5-HT transporter: NA uptake: Km=0.32±0.11 μM 5HT uptake: Km=0.084±0.011 μM. c) Investigation of Analgesic Efficacy by the Writhing Test
(§3) The 5-HT reuptake inhibition and noradrenalin reuptake inhibition of the 5-aminomethyl-1H-pyrrole-2-carboxylic acid amides according to the invention were determined as described above.

5-HT transporter = molecular target: T2, 5-HT transporter (Rattus norvegicus, UniProt P31652); assay: 5-HT uptake inhibition in rat brain synaptosomes (medulla and pons); assay type: biochemical; settings: 10 μM
T2 construct: from tissue; host or cells: rat brain synaptosomes (P2 fraction) from medulla and pons
T2 sequence (P31652 whole entry): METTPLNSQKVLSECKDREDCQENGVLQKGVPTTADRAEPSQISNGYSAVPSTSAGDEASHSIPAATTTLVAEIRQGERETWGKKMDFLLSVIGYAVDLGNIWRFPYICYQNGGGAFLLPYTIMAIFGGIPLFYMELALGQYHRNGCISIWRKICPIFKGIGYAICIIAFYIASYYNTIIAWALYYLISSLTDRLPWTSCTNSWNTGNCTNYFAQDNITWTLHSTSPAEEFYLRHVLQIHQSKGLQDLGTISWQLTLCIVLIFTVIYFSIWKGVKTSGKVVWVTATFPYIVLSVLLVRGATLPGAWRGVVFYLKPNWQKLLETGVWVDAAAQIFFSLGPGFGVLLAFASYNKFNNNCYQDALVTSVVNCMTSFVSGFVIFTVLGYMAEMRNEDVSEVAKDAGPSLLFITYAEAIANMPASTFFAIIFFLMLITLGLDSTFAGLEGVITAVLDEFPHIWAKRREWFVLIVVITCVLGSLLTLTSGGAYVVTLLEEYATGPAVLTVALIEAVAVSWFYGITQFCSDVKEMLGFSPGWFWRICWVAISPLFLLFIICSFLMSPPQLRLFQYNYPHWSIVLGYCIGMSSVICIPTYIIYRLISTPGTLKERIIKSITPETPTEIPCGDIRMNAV
Excerpt: as §1, §2
The particular uptake is measured in a 96-well microtitre plate. The volume is 250 μl and the incubation proceeds at room temperature (approx. 20-25° C.) under an O2 atmosphere. The incubation time is 7.5 minutes for [^3H]-NA and 5 minutes for [^3H]-5-HT. The 96 samples are then filtered through a Unifilter GF/B® microtitre plate (Packard) and washed with […] of incubated buffer using a “Brabdel MPXRI-96T Cell-Harvester”. The Unifilter GF/B plate is dried for 1 hour at 55° C. […] After sealing with a Top Seal® (Packard) and establishing an equilibrium (around 5 hours), radioactivity is determined in a “Trilux 1450 Microbeta” (Wallac).
The quantity of protein used in the above determination corresponds to the values known from the literature, as for example described in “Protein measurement with the folin phenol reagent”, Lowry et al., J. Biol. Chem., 193, 265-275, 1951. […]
as §3

human μ opioid receptor = molecular target: T3, human μ opioid receptor (Homo sapiens, UniProt P35372); assay: Affinity for human μ opioid receptor ([3H]-naloxone displacement, CHO-K1 membrane preparation, SPA); settings: percentage inhibition of specific [3H]-naloxone binding; compound concentration 1 μmol/l; read-out: OR μ1 human naloxone inhibition [%]
T3 construct: purchased NEN, Zaventem, Belgium RB-HOM; host or cells: CHO-K1 cells (membrane preparation)
T3 sequence (P35372 whole entry): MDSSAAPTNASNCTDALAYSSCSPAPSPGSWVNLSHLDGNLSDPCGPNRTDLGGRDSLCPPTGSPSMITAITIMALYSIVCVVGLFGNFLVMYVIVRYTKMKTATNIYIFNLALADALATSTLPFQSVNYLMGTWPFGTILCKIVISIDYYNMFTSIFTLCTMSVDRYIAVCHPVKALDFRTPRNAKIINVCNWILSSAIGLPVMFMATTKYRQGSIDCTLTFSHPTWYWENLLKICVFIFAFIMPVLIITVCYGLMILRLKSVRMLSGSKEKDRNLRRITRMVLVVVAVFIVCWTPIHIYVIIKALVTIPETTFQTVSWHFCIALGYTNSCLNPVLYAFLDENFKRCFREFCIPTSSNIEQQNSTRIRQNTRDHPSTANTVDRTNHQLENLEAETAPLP
Procedure: a) Method for Determining Affinity for Human μ Opioid Receptor
Receptor affinity for the human μ opioid receptor is determined in a homogeneous batch in microtitre plates. […] Once the ninety minute incubation time had elapsed, the microtitre plates were centrifuged off for 20 minutes at 1000 g and the radioactivity measured in a β-Counter (Microbeta-Trilux, from PerkinElmer Wallac, Freiburg, Germany). The percentage displacement of the radioactive ligand from its binding to the human μ opiate receptor is determined at a concentration of the compounds to be tested of 1 μmol/l and stated as percentage inhibition of specific binding. […]
The affinity of the 5-aminomethyl-1H-pyrrole-2-carboxylic acid amides according to the invention for the μ receptor was determined as described above.

T1 sequence (Q63380 1-617): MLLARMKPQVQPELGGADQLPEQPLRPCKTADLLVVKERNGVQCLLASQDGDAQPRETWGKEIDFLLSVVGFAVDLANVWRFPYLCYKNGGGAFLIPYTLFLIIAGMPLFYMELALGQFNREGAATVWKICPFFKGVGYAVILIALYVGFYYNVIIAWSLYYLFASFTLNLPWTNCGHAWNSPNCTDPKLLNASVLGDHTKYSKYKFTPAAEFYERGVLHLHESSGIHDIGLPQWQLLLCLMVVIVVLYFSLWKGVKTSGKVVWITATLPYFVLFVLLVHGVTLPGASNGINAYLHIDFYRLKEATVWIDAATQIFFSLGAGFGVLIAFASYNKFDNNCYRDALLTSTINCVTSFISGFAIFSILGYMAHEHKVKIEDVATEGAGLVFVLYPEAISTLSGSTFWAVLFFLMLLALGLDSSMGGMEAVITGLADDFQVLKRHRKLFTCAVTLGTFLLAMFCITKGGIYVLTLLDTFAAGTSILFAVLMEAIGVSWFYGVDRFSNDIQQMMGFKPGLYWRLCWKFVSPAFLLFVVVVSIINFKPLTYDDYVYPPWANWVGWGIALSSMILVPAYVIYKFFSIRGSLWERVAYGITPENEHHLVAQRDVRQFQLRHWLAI

Molecule	NA uptake inhibition (NA transporter) [% inhibition]	5HT uptake inhibition (5-HT transporter) [% inhibition]	inhibition at 1 µM (human μ opioid receptor) [%]
CC1CCCCN1Cc1ccc(C(=O)N(Cc2ccccc2)C(C)C)n1C (stereo not drawn) [Example 9, 1-Methyl-5-(2-methyl-piperidin-1-ylmethyl)-1H-pyrrole-2-carboxylic acid benzyl-isopropyl amide]	59	–	–
Cn1c(CN2CCCCCC2)ccc1C(=O)N1CCCC1 [Example 2, (5-Azepan-1-ylmethyl-1-methyl-1H-pyrrol-2-yl)-pyrrolidin-1-yl methanone]	–	60	–
CCOC(=O)C1CCN(Cc2ccc(C(=O)N(Cc3ccccc3)Cc3ccccc3)n2C)CC1 [Example 6, 1-(5-Dibenzylcarbamoyl-1-methyl-1H-pyrrol-2-ylmethyl)-piperidine-4-carboxylic acid ethyl ester]	74	–	–
CC1CCCCN1Cc1ccc(C(=O)N(C)Cc2ccccc2)n1C (stereo not drawn) [Example 5, 1-Methyl-5-(2-methyl-piperidin-1-ylmethyl)-1H-pyrrole-2-carboxylic acid benzyl-methyl amide]	81	–	–
CC1CCCCN1Cc1ccc(C(=O)N2CCCC2)n1C (stereo not drawn) [Example 3, [1-Methyl-5-(2-methyl-piperidin-1-ylmethyl)-1H-pyrrol-2-yl]-pyrrolidin-1-yl methanone]	–	52	83
CC1CCCCN1Cc1ccc(C(=O)N2CCCCC2)n1C (stereo not drawn) [Example 10, [1-Methyl-5-(2-methyl-piperidin-1-ylmethyl)-1H-pyrrol-2-yl]-piperidin-1-yl methanone]	–	–	86
CN(C(=O)c1ccc(CN2CCC(Cc3ccccc3)CC2)n1C)C1CCCCC1 [Example 7, 5-(4-Benzyl-piperidin-1-ylmethyl)-1-methyl-1H-pyrrole-2-carboxylic acid cyclohexyl-methyl amide]	62	–	–
CC1CCN(Cc2ccc(C(=O)N(C)Cc3ccccc3)n2C)CC1 [Example 1, 1-Methyl-5-(4-methyl-piperidin-1-ylmethyl)-1H-pyrrole-2-carboxylic acid benzyl-methyl amide]	81	70	–
1-Methyl-5-pyrrolidin-1-ylmethyl-1H-pyrrole-2-carboxylic acid benzyl amide [Example 4]	82	–	–
Cn1c(CN2CCC(Cc3ccccc3)CC2)ccc1C(=O)N1CCCCC1 [Example 8, [5-(4-Benzyl-piperidin-1-ylmethyl)-1-methyl-1H-pyrrol-2-yl]-piperidin-1-yl methanone]	61	–	–
